From patent US20020102688A1, “Methods and products for the synthesis of oligosaccharide structures on glycoproteins, glycolipids, or as free molecules, and for the isolation of cloned genetic sequences that determine these structures” (The Regents of the University of Michigan, priority 1990, published 2002)

Assays:
[1] = test system: monoclonal anti-H antibody; experiment: Hapten inhibition of anti-H antibody binding to mH1-12 cells (indirect immunofluorescence); parameters: species or system mouse; details: antibody preincubated with hapten, 20 mM
Protocol: Immunofluoroscence was performed on cells plated on 8-well tissue culture chamber slides (Lab-Tek). Cells were plated at a density of 5×10^4/well 24 h prior to analysis. Anti-H and anti-A primary antibodies were diluted in PBS containing bovine serum albumin at 2 mg/ml, to a final concentration of 10 μg/ml. Cell-bound primary antibodies were detected with FITC-conjugated goat anti-mouse IgM, diluted to 40 μg/ml in PBS containing 2 mg/ml bovine serum albumin.
Hapten Inhibition—Plated cells were washed twice with PBS, and were incubated for 30 min at 4° C. with 100 μl of diluted anti-H antibody, or with 100 μl of diluted antibody containing different oligosaccharide haptens, each at a concentration of 20 mM. The chambers were then washed twice, and 100 μl of FITC-conjugated goat anti-mouse IgM was added. After 30 min at 4° C., the chambers were washed three times with PBS, and the cells were fixed at room temperature for 10 min in 3.7% formaldehyde in PBS. The cells were washed twice with PBS, the chambers were removed, and the slide was mounted in PBS containing 25% glycerol. Cells were examined by fluorescence microscopy using a Zeiss Axiophot photomicroscope equipped with fluorescence epiillumination.

Fuc-TIV = target: T1, Fuc-TIV (Homo sapiens, UniProt P22083); experiment: Fucosyltransferase assay, extracts of CHO-FT3 cells (CHO transfected with pCDNA1-Fuc-TIV); type: biochemical; parameters: expressed in transfected cells; details: standard assay, CHO-FT3 cell extracts
T1 sequence (P22083 1-405 isoform P22083-2): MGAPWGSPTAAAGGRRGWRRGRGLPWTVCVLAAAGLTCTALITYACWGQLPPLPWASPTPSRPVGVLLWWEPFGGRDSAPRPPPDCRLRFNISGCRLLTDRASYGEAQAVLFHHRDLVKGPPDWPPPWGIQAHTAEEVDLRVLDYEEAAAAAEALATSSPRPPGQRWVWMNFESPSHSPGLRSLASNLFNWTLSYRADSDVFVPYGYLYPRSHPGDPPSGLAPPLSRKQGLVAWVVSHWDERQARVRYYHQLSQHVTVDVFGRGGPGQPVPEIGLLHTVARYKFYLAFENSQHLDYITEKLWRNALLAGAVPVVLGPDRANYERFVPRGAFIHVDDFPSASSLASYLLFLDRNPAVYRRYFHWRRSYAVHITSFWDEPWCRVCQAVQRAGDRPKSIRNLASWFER
Protocol: CHO Ade-C cells were transfected with Scal-linearized pCDM7-Fuc-TIV, co-precipitated in a 10-fold molar excess over EcoRI-linearized pSV2-Neo. A single, clonal, SSEA-1-positive cell line (CHO-FT3) was derived from this population. Cell extracts prepared from CHO-FT3 contained substantial amounts of α(1,3)fucosyltransferase activity when assayed with the acceptor N-acetyllactosamine.
Cell extracts containing 1% Triton X-100 were prepared from transfected COS-1 cells. Fucosyltransferase assays were performed in a total volume of 20 μl, and contained 50 mM sodium cacodylate, pH 6.2, 5 mM ATP, 10 mM fucose, 20 mM MnCl2, 3 μM GDP-^14C-fucose, and 5 μl (30 μg protein) of cell extract. Acceptor substrates were added to a final concentration of 20 mM. Reactions were incubated at 37° C. for 1 hour and terminated by addition of 20 μl ethanol, followed by addition of 600 μl of distilled water. An aliquot of each reaction (50 μl) was subjected to scintillation counting to determine total radioactivity in the reaction. Another aliquot (200 μl) was applied to a column containing 400 μl of Dowex IX2-400, formate form. The flow through fraction, and […] of a subsequent water elution, were collected and pooled, and an aliquot was subjected to scintillation counting to quantitate incorporation of radioactive fucose into neutral product. Descending paper chromatography was used to confirm the structure of the product formed with the acceptor N-acetyllactosamine. The neutral product in the Dowex column eluate was concentrated by lyophilization, resuspended in a small volume of water, and fractionated through Whatman No. 40 in phenol/isopropanol/formic acid/water (85:5:10:100, lower layer). After chromatography (40 hours), the air-dried chromatogram was cut into 1 cm strips and the strips eluted into 2 ml of water. Radioactivity in each eluate was determined by scintillation counting after mixing with 10 ml of scintillation cocktail.

Molecule	inhibition of anti-H antibody binding to mH1-12 cells by hapten [1]	α(1,3)fucosyltransferase activity with acceptor substrate (Fuc-TIV) [pmol/mg/h]
OC[C@H]1O[C@@H](O[C@H]2[C@H](O)[C@@H](O)C(O)O[C@@H]2CO)[C@H](O)[C@@H](O)[C@H]1O (stereo partly drawn) [lactose]	does not inhibit	2.0
Fucα(1,2)Galβ(1,4)Glc [2-fucosyllactose]	blocked	5.8
CC(=O)N[C@H]1C(O)O[C@H](CO)[C@@H](O[C@@H]2O[C@H](CO)[C@H](O)[C@H](O)[C@H]2O)[C@@H]1O (stereo partly drawn) [N-acetyllactosamine]	does not inhibit	59.1
